Measured values taken from patent publication US20240254129A1, “HETEROCYCLIC COMPOUNDS AND USES THEREOF” (Kumquat Biosciences Inc., priority 2021, published 2024).

Key:
[1] = target: GST-tagged K-Ras mutant / His-tagged hSOS1 (Homo sapiens, UniProt P01116); experiment: HTRF assay, K-Ras mutant / SOS1 interaction; format: binding; conditions: compound nos. 401-703; read-out: IC50 against mutant Kras
Outline: (§1)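 Buffer ~5 mM HEPES pH 7.4, ~150 mM NaCl, ~1 mM DTT, 0.05% BSA, 0.0025% Igepal. Cpd in DMSO + Ras/donor mix + SOS1/acceptor mix; ≥10 min; HTRF 665/620 ratio → IC50.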

wildtype Kras / hSOS1 = target: T1, wildtype Kras / hSOS1 (Homo sapiens, UniProt P01116); experiment: HTRF assay, wildtype Kras / SOS1 interaction; format: binding; conditions: compound nos. 401-703; read-out: IC50 against wildtype Kras
T1 construct: made in house; host or cells: E. coli BL21 (DE3)
T1 sequence (P01116 1-188 isoform P01116-2): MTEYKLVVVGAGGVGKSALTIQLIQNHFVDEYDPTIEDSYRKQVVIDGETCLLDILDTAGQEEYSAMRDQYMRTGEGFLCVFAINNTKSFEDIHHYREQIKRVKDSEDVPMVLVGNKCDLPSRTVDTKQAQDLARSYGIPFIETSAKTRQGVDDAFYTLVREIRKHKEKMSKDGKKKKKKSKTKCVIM
Outline: as §1

Sequence of GST-tagged K-Ras mutant / His-tagged hSOS1 (P01116 whole entry G12D, form open): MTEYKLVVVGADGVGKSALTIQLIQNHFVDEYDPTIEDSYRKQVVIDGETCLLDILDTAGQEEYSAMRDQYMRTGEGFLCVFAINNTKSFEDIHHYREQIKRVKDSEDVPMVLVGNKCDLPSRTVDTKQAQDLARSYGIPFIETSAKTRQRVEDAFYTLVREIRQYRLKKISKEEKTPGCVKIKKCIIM

Nc1ccc(-c2ccc(O)cc2-c2c(Cl)cc3c(N4CC5CCC(C4)N5)nc(OCC45CCCN4CCC5)nc3c2F)cc1 [Compound 445, 2-(4-(3,8-diazabicyclo-[3.2.1]octan-3-yl)-6-chloro-8-fluoro-2-((tetrahydro-1H-pyrrolizin-7a(5H)-yl)meth-oxy)quinazolin-7-yl)-4′-amino-[1,1′-biphenyl]-4-ol]
IC50 [1]: > 0.5 µM
IC50 (wildtype Kras / hSOS1): < 0.5 µM

CN(C)CC1(COc2nc(N3CC4CCC(C3)N4)c3ccc(-c4cccc5cccc(Cl)c45)c(F)c3n2)CC1 [Compound 447, 1-(1-(((4-(3,8-diazabicyclo-[3.2.1]octan-3-yl)-7-(8-chloronaphthalen-1-yl)-8-fluoroquinazolin-2-yl)oxy)-methyl)cyclopropyl)-N,N-dimethylmethanamine]
IC50 [1]: > 0.5 µM
IC50 (wildtype Kras / hSOS1): < 0.5 µM

CO[C@@H]1CN(C)C[C@H]1Oc1nc(N2CC3CCC(C2)N3)c2cc(Cl)c(-c3ccc(F)c4sc(N)nc34)c(F)c2n1 [Compound 448, 4-(4-(3,8-diazabicyclo-[3.2.1]-octan-3-yl)-6-chloro-8-fluoro-2-(((3R,4R)-4-methoxy-1-methylpyrrolidin-3-yl)oxy)quinazolin-7-yl)-7-fluorobenzo[d]thiazol-2-amine]
IC50 [1]: < 0.5 µM
IC50 (wildtype Kras / hSOS1): < 0.5 µM

Nc1ccc(-c2ccccc2-c2c(Cl)cc3c(N4CCCCCC4)nc(OCC45CCCN4CCC5)nc3c2F)cc1 [Compound 450, 2′-(4-(azepan-1-yl)-6-chloro-8-fluoro-2-((tetrahydro-1H-pyrrolizin-7a(5H)-yl)meth-oxy)quinazolin-7-yl)-[1,1′-biphenyl]-4-amine]
IC50 [1]: > 0.5 µM
IC50 (wildtype Kras / hSOS1): < 0.5 µM

N#CCCc1cc2c(N3CC4CCC(C3)N4)nc(OC[C@@]34CCCN3C[C@H](F)C4)nc2c(F)c1-c1cccc2ccc(F)c(Cl)c12 [Compound 451, 3-(4-(3,8-diazabicyclo-[3.2.1]octan-3-yl)-7-(8-chloro-7-fluoronaphthalen-1-yl)-8-fluoro-2-(((2R,7aS)-2-fluorotetrahydro-1H-pyrrolizin-7a(5H)-yl)meth-oxy)quinazolin-6-yl)pro-panenitrile]
IC50 [1]: > 0.5 µM
IC50 (wildtype Kras / hSOS1): < 0.5 µM

Nc1nc2c(-c3c(Cl)cc4c(N5CCNCC(F)(F)C5)nc(OCC5(CN6CCCC6)CC5)nc4c3F)ccc(F)c2s1 [Compound 452, 4-(6-chloro-4-(6,6-difluoro-1,4-diazepan-1-yl)-8-fluoro-2-((1-(pyrrolidin-1-ylmeth-yl)cyclopropyl)methoxy)-quinazolin-7-yl)-7-fluoro-benzo[d]thiazol-2-amine]
IC50 [1]: < 0.5 µM
IC50 (wildtype Kras / hSOS1): < 0.5 µM

CN1CCC[C@H]1COc1nc(N2CCCC(C3CC3)CC2)c2cc(Cl)c(-c3cccc4sc(N)nc34)c(F)c2n1 (stereo partly drawn) [Compound 453, 4-(6-chloro-4-(4-cycloprop-propylazepan-1-yl)-8-fluoro-2-(((S)-1-methylpyrrolidin-2-yl)methoxy)quinazolin-7-yl)benzo[d]thiazol-2-amine]
IC50 [1]: > 0.5 µM
IC50 (wildtype Kras / hSOS1): < 0.5 µM

Nc1nc2c(-c3c(Cl)cc4c(N5CC6CCC(C5)O6)nc(OC[C@@]56CCCN5C[C@H](F)C6)nc4c3F)ccc(F)c2s1 [Compound 454, 4-(4-(8-oxa-3-azabicyclo-[3.2.1]octan-3-yl)-6-chloro-8-fluoro-2-(((2R,7aS)-2-fluorotetrahydro-1H-pyrrolizin-7a(5H)-yl)meth-oxy)quinazolin-7-yl)-7-fluorobenzo[d]thiazol-2-amine]
IC50 [1]: < 0.5 µM
IC50 (wildtype Kras / hSOS1): < 0.5 µM

CN1CCC[C@H]1COc1nc(N2CCCCC(C(N)=O)C2)c2cc(Cl)c(-c3cccc4sc(N)nc34)c(F)c2n1 (stereo partly drawn) [Compound 455, 1-(7-(2-aminobenzo[d]-thiazol-4-yl)-6-chloro-8-fluoro-2-(((S)-1-methylpyr-rolidin-2-yl)methoxy)quin-zolin-4-yl)azepane-3-carboxamide]
IC50 [1]: < 0.5 µM
IC50 (wildtype Kras / hSOS1): < 0.5 µM

Nc1nc2c(-c3c(Cl)cc4c(N5CC6CCC(C5)N6)nc(OCCCN5CCCC5)nc4c3F)ccc(F)c2s1 [Compound 457, 4-(4-(3,8-diazabicyclo-[3.2.1]octan-3-yl)-6-chloro-8-fluoro-2-(3-(pyrrolidin-1-yl)propoxy)quinazolin-7-yl)-7-fluorobenzo[d]thiazol-2-amine]
IC50 [1]: > 0.5 µM
IC50 (wildtype Kras / hSOS1): < 0.5 µM

Nc1ccc(C2CC2)c(-c2ccc3c(N4CC5CCC(C4)N5)nc(OC[C@@]45CCCN4C[C@H](F)C5)nc3c2F)n1 [Compound 458, 6-(4-(3,8-diazabicyclo-[3.2.1]octan-3-yl)-8-fluoro-2-(((2R,7aS)-2-fluorotetra-hydro-1H-pyrrolizin-7a(5H)-yl)methoxy)quinazolin-7-yl)-5-cyclopropylpyridin-2-amine]
IC50 [1]: > 0.5 µM
IC50 (wildtype Kras / hSOS1): < 0.5 µM

CN1CCC[C@H]1COc1nc(N2CCCC(F)C(F)(F)C2)c2cc(Cl)c(-c3cccc4sc(N)nc34)c(F)c2n1 (stereo partly drawn) [Compound 459, 4-(6-chloro-8-fluoro-2-(((S)-1-methylpyrrolidin-2-yl)-methoxy)-4-(3,3,4-trifluoro-azepan-1-yl)quinazolin-7-yl)benzo[d]thiazol-2-amine]
IC50 [1]: < 0.5 µM
IC50 (wildtype Kras / hSOS1): < 0.5 µM

CC(C)CN1CCCN(c2nc(OCC34CCCN3CCC4)nc3c(F)c(-c4ccc(F)c5sc(N)nc45)c(Cl)cc23)CC1 [Compound 460, 4-(6-chloro-8-fluoro-4-(4-isobutyl-1,4-diazepan-1-yl)-2-((tetrahydro-1H-pyrrolizin-7a(5H)-yl)methoxy)quin-azolin-7-yl)-7-fluorobenzo-[d]thiazol-2-amine-]
IC50 [1]: < 0.5 µM
IC50 (wildtype Kras / hSOS1): < 0.5 µM

Cc1ncc(Oc2nc(N3CCCCCC3)c3cc(Cl)c(-c4cccc5sc(N)nc45)c(F)c3n2)cn1 [Compound 461, 4-(4-(azepan-1-yl)-6-chloro-8-fluoro-2-((2-methylpyrim-idin-5-yl)oxy)quinazolin-7-yl)benzo[d]thiazol-2-amine]
IC50 [1]: > 0.5 µM
IC50 (wildtype Kras / hSOS1): < 0.5 µM

Cc1ccc2oc(N)nc2c1-c1c(Cl)cc2c(N3CCNCC(F)(F)C3)nc(OC[C@@H]3CCCN3C)nc2c1F [Compound 462, 4-(6-chloro-4-(6,6-difluoro-1,4-diazepan-1-yl)-8-fluoro-2-(((S)-1-methylpyrrolidin-2-yl)methoxy)quinazolin-7-yl)-5-methylbenzo[d]oxazol-2-amine]
IC50 [1]: < 0.5 µM
IC50 (wildtype Kras / hSOS1): < 0.5 µM

Cc1ccc2oc(N)nc2c1-c1c(Cl)cc2c(N3CCNCC(F)(F)C3)nc(OC[C@@]34CCCN3C[C@H](F)C4)nc2c1F [Compound 463, 4-(6-chloro-4-(6,6-difluoro-1,4-diazepan-1-yl)-8-fluoro-2-(((2R,7aS)-2-fluorotetra-hydro-1H-pyrrolizin-7a(5H)-yl)methoxy)quinazolin-7-yl)-5-methylbenzo[d]oxazol-2-amine]
IC50 [1]: < 0.5 µM
IC50 (wildtype Kras / hSOS1): < 0.5 µM

N#CCCc1cc2c(N3CC4CCC(C3)N4)nc(OC[C@@]34CCCN3C[C@H](F)C4)nc2c(F)c1-c1ccc(F)c2sc(N)c(C#N)c12 [Compound 464, 4-(4-(3,8-diazabicyclo-[3.2.1]octan-3-yl)-6-(2-cyanoethyl)-8-fluoro-2-(((2R,7aS)-2-fluorotetra-hydro-1H-pyrrolizin-7a(5H)-yl)methoxy)quin-azolin-7-yl)-2-amino-7-fluorobenzo[b]thiophene-3-carbonitrile]
IC50 [1]: < 0.5 µM
IC50 (wildtype Kras / hSOS1): < 0.5 µM
